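Cells were grown in 96-well plates and exposed to each compound for 48 hours at five concentrations; endpoints were interpolated linearly between bracketing concentrations, or set to the highest concentration if not reached. Abbreviation: GI50, concentration required for 50% inhibition of growth.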 The source made the active and inactive calls. No stated cut-off is given here; in the data, active = GI50 up to about 1.1 µM and inactive = higher.
Tests used:
Test in all cases: inhibition of tumour cell growth, NCI panel, 48 h
[1] = system: SW-620
[2] = system: A498
[3] = system: 786-0
[4] = system: UACC-62
[5] = system: NCI-H460
[6] = system: M14
[7] = system: ACHN
[8] = system: CAKI-1
[9] = system: SK-MEL-28
[10] = system: Malme-3M
[11] = system: SR
[12] = system: CCRF-CEM
[13] = system: IGROV-1
[14] = system: SK-MEL-5
[15] = system: M19-MEL
[16] = system: KM-20L2
[17] = system: SN12C
[18] = system: RPMI-8226
[19] = system: KM12
[20] = system: HCC 2998
[21] = system: SNB-75
[22] = system: SNB-19
[23] = system: A549
[24] = system: LXFL 529
[25] = system: OVCAR-8
[26] = system: DMS-273
[27] = system: DMS-114
[28] = system: SNB-78
[29] = system: UACC-257
[30] = system: SF-539
[31] = system: OVCAR-4
[32] = system: HOP-92
[33] = system: NCI-H522
[34] = system: SF-268
[35] = system: SK-OV-3
[36] = system: LOX IMVI
[37] = system: HCT-116
[38] = system: U-251
[39] = system: NCI-H23
[40] = system: UO-31
[41] = system: HT-29
[42] = system: EKVX
[43] = system: K562
[44] = system: COLO 205
[45] = system: MOLT-4
[46] = system: OVCAR-3
[47] = system: HCT-15
[48] = system: SK-MEL-2
[49] = system: TK-10
[50] = system: RXF 393
[51] = system: HOP-62
[52] = system: SF-295
[53] = system: HL-60
[54] = system: NCI-H226
[55] = system: HOP-18
[56] = system: OVCAR-5
[57] = system: DLD-1

## CCCCCCCCCC(=O)OCC1OC(n2cc(F)c(=O)[nH]c2=O)C(N)C(OC(=O)CCCCCCCCC)C1O (centres undefined)
[1]
  GI50: 17.4 µM (inactive)
[2]
  GI50: 15.5 µM (inactive)
[3]
  GI50: 18.4 µM (inactive)
[4]
  GI50: 17.9 µM (inactive)
[5]
  GI50: 19.4 µM (inactive)
[6]
  GI50: 19.2 µM (inactive)
[7]
  GI50: 40.2 µM (inactive)
[8]
  GI50: 38.2 µM (inactive)
[9]
  GI50: 16.7 µM (inactive)
[10]
  GI50: 16.9 µM (inactive)
[11]
  GI50: 19.7 µM (inactive)
[12]
  GI50: 18.5 µM (inactive)
[13]
  GI50: > 100 µM (inactive)
[14]
  GI50: 22.6 µM (inactive)
[15]
  GI50: 17.4 µM (inactive)
[16]
  GI50: 19 µM (inactive)
[17]
  GI50: 16.9 µM (inactive)
[18]
  GI50: 21.5 µM (inactive)
[19]
  GI50: 19.1 µM (inactive)
[20]
  GI50: 15.5 µM (inactive)
[21]
  GI50: 16.3 µM (inactive)
[22]
  GI50: 17.4 µM (inactive)
[23]
  GI50: 18 µM (inactive)
[24]
  GI50: 16.6 µM (inactive)
[25]
  GI50: 18.2 µM (inactive)
[26]
  GI50: 20.4 µM (inactive)
[27]
  GI50: 15.7 µM (inactive)
[28]
  GI50: 15.8 µM (inactive)
[29]
  GI50: 20 µM (inactive)
[30]
  GI50: 18.4 µM (inactive)
[31]
  GI50: 15.8 µM (inactive)
[32]
  GI50: 20.6 µM (inactive)
[33]
  GI50: 14.6 µM (inactive)
[34]
  GI50: 20.2 µM (inactive)
[35]
  GI50: 60 µM (inactive)
[36]
  GI50: 16.5 µM (inactive)
[37]
  GI50: 18.2 µM (inactive)
[38]
  GI50: 17.1 µM (inactive)
[39]
  GI50: 18.7 µM (inactive)
[40]
  GI50: 21.6 µM (inactive)
[41]
  GI50: 17.5 µM (inactive)
[42]
  GI50: 18.2 µM (inactive)
[43]
  GI50: 16.7 µM (inactive)
[44]
  GI50: 17.5 µM (inactive)
[45]
  GI50: 14.1 µM (inactive)
[46]
  GI50: 18.6 µM (inactive)
[47]
  GI50: 18.2 µM
[48]
  GI50: 15.5 µM (inactive)
[49]
  GI50: 36.1 µM (inactive)
[50]
  GI50: 15.9 µM (inactive)
[51]
  GI50: 37.2 µM (inactive)
[52]
  GI50: 17.8 µM (inactive)
[53]
  GI50: 23.3 µM (inactive)

## CC(=O)Nc1ccc(C(=O)N2N=C(C)/C(=C/c3cccc([N+](=O)[O-])c3)C2=O)cc1
[1]
  GI50: > 100 µM (inactive)
[3]
  GI50: > 100 µM (inactive)
[5]
  GI50: > 100 µM (inactive)
[6]
  GI50: > 100 µM (inactive)
[54]
  GI50: > 100 µM (inactive)
[7]
  GI50: > 100 µM (inactive)
[8]
  GI50: > 100 µM (inactive)
[9]
  GI50: > 100 µM (inactive)
[10]
  GI50: > 100 µM (inactive)
[11]
  GI50: > 100 µM (inactive)
[12]
  GI50: > 100 µM (inactive)
[14]
  GI50: > 100 µM (inactive)
[15]
  GI50: > 100 µM (inactive)
[17]
  GI50: > 100 µM (inactive)
[18]
  GI50: > 100 µM (inactive)
[19]
  GI50: > 100 µM (inactive)
[20]
  GI50: > 100 µM (inactive)
[21]
  GI50: > 100 µM (inactive)
[22]
  GI50: > 100 µM (inactive)
[55]
  GI50: > 100 µM (inactive)
[23]
  GI50: > 100 µM (inactive)
[25]
  GI50: > 100 µM (inactive)
[26]
  GI50: > 100 µM (inactive)
[27]
  GI50: > 100 µM (inactive)
[28]
  GI50: > 100 µM (inactive)
[29]
  GI50: > 100 µM (inactive)
[30]
  GI50: > 100 µM (inactive)
[31]
  GI50: > 100 µM (inactive)
[33]
  GI50: > 100 µM (inactive)
[34]
  GI50: > 100 µM (inactive)
[36]
  GI50: > 100 µM (inactive)
[37]
  GI50: > 100 µM (inactive)
[39]
  GI50: > 100 µM (inactive)
[40]
  GI50: > 100 µM (inactive)
[56]
  GI50: > 100 µM (inactive)
[41]
  GI50: > 100 µM (inactive)
[42]
  GI50: > 100 µM (inactive)
[43]
  GI50: > 100 µM (inactive)
[44]
  GI50: > 100 µM (inactive)
[45]
  GI50: > 100 µM (inactive)
[46]
  GI50: > 100 µM (inactive)
[49]
  GI50: > 100 µM (inactive)
[57]
  GI50: > 100 µM (inactive)
[51]
  GI50: > 100 µM (inactive)
[52]
  GI50: > 100 µM (inactive)
[53]
  GI50: > 100 µM (inactive)
